Data reported in paper PMC6018958 (ACS Omega, 2017).

Key:
EGFR^L858R [1] = target: T1, EGFR^L858R (Homo sapiens, UniProt P00533, L858R); assay: biochemical
EGFR^L858R/T790M [2] = target: T2, EGFR^L858R/T790M (Homo sapiens, UniProt P00533, L858R/T790M); assay: biochemical
EGFR^WT [3] = target: T3, EGFR^WT (Homo sapiens, UniProt P00533); assay: biochemical
EGFR^L858R/T790M [4] = target: T2, EGFR^L858R/T790M; assay: Kinetic characterization; type: biochemical
EGFR^L858R [5] = target: T1, EGFR^L858R; assay: Kinetic characterization; type: biochemical
EGFR^WT [6] = target: T3, EGFR^WT; assay: Kinetic characterization; type: biochemical
EGFR^L858R/T790M [7] = target: T2, EGFR^L858R/T790M; assay: SelectScreen kinase profiling
EGFR^T790M = EGFR^T790M (Homo sapiens, UniProt P00533, T790M); assay: SelectScreen kinase profiling; type: biochemical
Chain of EGFR^T790M (P00533 25-1210 T790M): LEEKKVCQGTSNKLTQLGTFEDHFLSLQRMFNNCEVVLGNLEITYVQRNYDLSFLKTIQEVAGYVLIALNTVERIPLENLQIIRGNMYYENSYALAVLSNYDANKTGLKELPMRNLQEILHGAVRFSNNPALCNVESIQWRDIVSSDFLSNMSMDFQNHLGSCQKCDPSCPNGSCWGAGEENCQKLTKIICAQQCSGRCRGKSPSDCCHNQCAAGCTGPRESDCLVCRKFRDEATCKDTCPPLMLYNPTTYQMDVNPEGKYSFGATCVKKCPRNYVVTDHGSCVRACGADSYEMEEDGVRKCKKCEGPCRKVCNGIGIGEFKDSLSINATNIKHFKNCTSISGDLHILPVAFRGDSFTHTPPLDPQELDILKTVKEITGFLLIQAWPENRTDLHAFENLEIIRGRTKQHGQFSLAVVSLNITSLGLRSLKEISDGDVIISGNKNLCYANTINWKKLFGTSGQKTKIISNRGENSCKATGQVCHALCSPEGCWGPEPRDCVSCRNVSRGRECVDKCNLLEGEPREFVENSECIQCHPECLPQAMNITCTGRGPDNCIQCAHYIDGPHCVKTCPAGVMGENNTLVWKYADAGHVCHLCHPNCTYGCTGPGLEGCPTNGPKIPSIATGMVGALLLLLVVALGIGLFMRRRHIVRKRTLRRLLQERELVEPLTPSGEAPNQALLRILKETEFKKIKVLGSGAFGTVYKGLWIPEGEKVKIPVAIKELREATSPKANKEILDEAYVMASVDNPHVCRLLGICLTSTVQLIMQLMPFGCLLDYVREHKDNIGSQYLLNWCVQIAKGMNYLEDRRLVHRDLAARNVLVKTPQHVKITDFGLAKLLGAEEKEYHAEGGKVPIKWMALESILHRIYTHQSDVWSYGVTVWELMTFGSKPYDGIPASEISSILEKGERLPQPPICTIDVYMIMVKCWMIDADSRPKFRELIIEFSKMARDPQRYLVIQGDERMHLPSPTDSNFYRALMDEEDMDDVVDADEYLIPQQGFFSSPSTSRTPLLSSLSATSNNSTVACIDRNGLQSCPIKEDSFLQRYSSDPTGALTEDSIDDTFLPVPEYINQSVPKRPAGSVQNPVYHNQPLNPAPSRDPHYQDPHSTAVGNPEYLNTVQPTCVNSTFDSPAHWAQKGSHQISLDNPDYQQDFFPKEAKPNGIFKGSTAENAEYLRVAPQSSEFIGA

[8] = system: kinases that harbor a cysteine comparable to C797 in the hinge region; assay: SelectScreen kinase profiling; type: biochemical; conditions: compound concentration 1 μM; almost all cysteine-containing kinases (Table S1)

T3 sequence (P00533 25-1210): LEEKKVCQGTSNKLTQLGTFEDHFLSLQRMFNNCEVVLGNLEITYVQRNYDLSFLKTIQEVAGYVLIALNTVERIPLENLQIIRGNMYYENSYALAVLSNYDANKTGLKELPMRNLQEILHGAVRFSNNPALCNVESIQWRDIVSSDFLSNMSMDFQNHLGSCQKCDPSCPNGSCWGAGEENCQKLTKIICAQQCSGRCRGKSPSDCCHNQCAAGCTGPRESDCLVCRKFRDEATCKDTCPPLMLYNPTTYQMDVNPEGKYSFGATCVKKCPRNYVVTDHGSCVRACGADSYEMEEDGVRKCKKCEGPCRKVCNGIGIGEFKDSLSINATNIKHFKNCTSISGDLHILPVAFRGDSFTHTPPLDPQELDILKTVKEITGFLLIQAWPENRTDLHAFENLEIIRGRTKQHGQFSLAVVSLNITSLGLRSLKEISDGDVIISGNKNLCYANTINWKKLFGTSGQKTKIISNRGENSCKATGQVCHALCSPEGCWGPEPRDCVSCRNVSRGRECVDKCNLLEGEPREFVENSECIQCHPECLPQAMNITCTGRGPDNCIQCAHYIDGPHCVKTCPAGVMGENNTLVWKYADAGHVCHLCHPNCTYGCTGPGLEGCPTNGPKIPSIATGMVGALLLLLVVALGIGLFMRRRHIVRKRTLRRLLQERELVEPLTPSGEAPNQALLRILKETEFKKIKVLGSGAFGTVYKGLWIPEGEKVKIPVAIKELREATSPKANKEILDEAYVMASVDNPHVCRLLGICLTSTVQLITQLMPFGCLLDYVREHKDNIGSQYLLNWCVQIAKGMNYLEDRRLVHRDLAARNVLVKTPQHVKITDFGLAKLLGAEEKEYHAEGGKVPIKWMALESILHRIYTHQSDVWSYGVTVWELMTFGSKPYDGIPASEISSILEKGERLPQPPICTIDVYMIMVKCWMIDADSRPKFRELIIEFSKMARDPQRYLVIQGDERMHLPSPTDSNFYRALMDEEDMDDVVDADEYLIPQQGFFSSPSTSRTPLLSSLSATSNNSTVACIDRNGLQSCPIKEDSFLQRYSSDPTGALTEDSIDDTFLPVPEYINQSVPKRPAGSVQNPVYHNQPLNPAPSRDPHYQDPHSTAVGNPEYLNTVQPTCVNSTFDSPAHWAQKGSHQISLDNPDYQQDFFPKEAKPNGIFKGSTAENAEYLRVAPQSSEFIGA
T1 sequence (P00533 25-1210 L858R): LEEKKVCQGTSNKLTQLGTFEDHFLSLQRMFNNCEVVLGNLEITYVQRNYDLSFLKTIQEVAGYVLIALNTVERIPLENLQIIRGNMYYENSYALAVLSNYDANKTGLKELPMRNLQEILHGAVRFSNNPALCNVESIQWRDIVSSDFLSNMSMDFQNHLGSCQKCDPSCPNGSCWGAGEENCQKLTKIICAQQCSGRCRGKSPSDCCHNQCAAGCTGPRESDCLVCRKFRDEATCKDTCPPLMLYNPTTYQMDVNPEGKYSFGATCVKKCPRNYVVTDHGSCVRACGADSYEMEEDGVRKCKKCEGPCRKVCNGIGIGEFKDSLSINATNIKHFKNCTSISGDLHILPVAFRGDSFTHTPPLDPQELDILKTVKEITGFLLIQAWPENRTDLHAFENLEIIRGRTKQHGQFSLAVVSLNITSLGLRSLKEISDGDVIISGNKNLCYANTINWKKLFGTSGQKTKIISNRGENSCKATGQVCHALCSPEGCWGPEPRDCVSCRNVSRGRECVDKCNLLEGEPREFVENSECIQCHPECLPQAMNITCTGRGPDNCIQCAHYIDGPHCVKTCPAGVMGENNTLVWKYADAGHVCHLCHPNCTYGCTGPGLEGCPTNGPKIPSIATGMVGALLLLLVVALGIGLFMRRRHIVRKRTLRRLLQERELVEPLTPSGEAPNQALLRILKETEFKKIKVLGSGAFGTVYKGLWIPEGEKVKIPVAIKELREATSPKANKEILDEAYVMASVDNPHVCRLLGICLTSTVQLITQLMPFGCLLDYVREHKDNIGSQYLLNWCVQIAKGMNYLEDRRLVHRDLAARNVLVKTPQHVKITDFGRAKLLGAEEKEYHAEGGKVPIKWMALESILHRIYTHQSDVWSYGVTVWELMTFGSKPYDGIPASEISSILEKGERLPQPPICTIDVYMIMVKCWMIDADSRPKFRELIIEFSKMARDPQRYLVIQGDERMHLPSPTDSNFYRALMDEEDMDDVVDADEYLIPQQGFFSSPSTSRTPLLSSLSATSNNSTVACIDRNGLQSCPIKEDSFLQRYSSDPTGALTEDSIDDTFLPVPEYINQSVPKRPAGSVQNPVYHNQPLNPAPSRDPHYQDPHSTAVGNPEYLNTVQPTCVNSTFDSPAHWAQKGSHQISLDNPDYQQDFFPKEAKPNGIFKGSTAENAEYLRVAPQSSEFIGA
T2 sequence (P00533 25-1210 T790M/L858R): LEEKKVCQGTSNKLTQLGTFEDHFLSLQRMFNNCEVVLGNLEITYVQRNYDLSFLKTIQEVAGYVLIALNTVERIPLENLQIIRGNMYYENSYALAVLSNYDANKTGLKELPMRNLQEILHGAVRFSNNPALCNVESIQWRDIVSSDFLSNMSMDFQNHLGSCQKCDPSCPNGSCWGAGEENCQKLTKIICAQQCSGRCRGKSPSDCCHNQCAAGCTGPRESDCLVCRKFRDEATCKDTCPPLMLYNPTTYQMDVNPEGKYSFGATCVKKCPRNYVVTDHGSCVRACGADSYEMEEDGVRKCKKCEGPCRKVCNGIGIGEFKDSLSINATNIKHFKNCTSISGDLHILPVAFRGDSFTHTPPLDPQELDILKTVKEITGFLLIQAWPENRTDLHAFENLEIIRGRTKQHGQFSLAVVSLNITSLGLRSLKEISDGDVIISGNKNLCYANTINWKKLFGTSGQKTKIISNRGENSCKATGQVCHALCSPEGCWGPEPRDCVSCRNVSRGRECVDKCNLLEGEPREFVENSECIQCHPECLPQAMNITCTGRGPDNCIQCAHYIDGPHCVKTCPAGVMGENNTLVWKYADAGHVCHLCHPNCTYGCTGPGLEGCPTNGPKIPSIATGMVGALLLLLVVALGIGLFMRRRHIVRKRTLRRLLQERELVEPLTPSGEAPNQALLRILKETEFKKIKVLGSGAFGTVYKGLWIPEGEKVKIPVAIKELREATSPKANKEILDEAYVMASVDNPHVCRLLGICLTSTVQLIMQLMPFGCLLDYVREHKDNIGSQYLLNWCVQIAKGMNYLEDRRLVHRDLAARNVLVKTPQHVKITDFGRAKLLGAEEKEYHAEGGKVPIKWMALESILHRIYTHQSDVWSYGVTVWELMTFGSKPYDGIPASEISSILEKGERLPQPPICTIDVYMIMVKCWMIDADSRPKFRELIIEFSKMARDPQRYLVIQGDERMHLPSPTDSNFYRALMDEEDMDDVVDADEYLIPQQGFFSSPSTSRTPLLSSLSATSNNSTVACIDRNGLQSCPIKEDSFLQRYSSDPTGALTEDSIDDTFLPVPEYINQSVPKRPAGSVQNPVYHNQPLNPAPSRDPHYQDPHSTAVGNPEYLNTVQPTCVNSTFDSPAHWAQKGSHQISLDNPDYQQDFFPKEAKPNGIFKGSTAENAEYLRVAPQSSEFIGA

| IC50 (EGFR^L858R [1]) [nM] | IC50 (EGFR^L858R/T790M [2]) [nM] | IC50 (EGFR^WT [3]) [nM] | Ki (EGFR^L858R/T790M [4]) [nM] | kinact (EGFR^L858R/T790M [4]) [s⁻¹] | kinact/KI (EGFR^L858R/T790M [4]) [M⁻¹ s⁻¹] | Ki (EGFR^L858R [5]) [nM] | kinact (EGFR^L858R [5]) [s⁻¹] | kinact/KI (EGFR^L858R [5]) [M⁻¹ s⁻¹] | Ki (EGFR^WT [6]) [nM] | kinact (EGFR^WT [6]) [s⁻¹] | kinact/KI (EGFR^WT [6]) [M⁻¹ s⁻¹] | inhibition at 1 µM (EGFR^L858R/T790M [7]) [%] | inhibition at 1 µM (EGFR^T790M) [%] | inhibition [8] | SMILES |
| --- | --- | --- | --- | --- | --- | --- | --- | --- | --- | --- | --- | --- | --- | --- | --- |
| 229 ± 62 | 4540 ± 543 | 5380 ± 3890 | – | – | – | – | – | – | – | – | – | – | – | – | N#C/C(=C\C1CC1)C(=O)N1CCC[C@@H](n2nc(-c3ccccc3)c3c(N)ncnc32)C1 [1a, (R,E)-2-(3-(4-Amino-3-phenyl-1H-pyrazolo[3,4-d]pyrimidin-1-yl)piperidine-1-carbonyl)-3-cyclopropylacrylonitrile] |
| 385 ± 207 | 2540 ± 420 | > 10000 | – | – | – | – | – | – | – | – | – | – | – | – | N#C/C(=C\C1CC1)C(=O)N1CCC[C@@H](n2nc(-c3cccc(C(F)(F)F)c3)c3c(N)ncnc32)C1 [1b, (R,E)-2-(3-(4-Amino-3-(3-(trifluoromethyl)phenyl)-1H-pyrazolo[3,4-d]pyrimidin-1-yl)piperidine-1-carbonyl)-3-cyclopropylacrylonitrile] |
| – | 80 ± 51 | 102 ± 75 | 15 ± 3 | 0.00183 | 730000 ± 160000 | 14 ± 2 | 0.000667 | 680000 ± 250000 | 64 ± 1 | 0.0005 | 10000 ± 10000 | – | – | – | N#C/C(=C\C1CC1)C(=O)N1CCC[C@@H](n2nc(-c3cccc4ccccc34)c3c(N)ncnc32)C1 [1c, (R,E)-2-(3-(4-Amino-3-(naphthalen-1-yl)-1H-pyrazolo[3,4-d]pyrimidin-1-yl)piperidine-1-carbonyl)-3-cyclopropylacrylonitrile] |
| 10 ± 8 | 20 ± 13 | 96 ± 26 | 51 ± 2 | 0.00283 | 50000 ± 20000 | 37 ± 6 | 0.003 | 200000 ± 10000 | 265 ± 1 | 0.000667 | 10000 ± 10000 | ~90 | ~90 | more than 50% | N#C/C(=C\C1CC1)C(=O)N1CCC[C@@H](n2nc(-c3cnc4[nH]ccc4c3)c3c(N)ncnc32)C1 [1d, (R,E)-2-(3-(4-Amino-3-(1H-pyrrolo[2,3-b]pyridin-5-yl)-1H-pyrazolo[3,4-d]pyrimidin-1-yl)piperidine-1-carbonyl)-3-cyclopropylacrylonitrile] |
| 85 ± 34 | 213 ± 49 | 338 ± 69 | 83 ± 10 | 0.00217 | 360000 ± 20000 | 79 ± 9 | 0.002 | 260000 ± 70000 | 1670 ± 450 | 0.00283 | 10000 ± 10000 | – | – | – | Cn1cc(-c2nn([C@@H]3CCCN(C(=O)/C(C#N)=C/C4CC4)C3)c3ncnc(N)c23)c2ccccc21 [1e, (R,E)-2-(3-(4-Amino-3-(1-methyl-1H-indol-3-yl)-1H-pyrazolo[3,4-d]pyrimidin-1-yl)piperidine-1-carbonyl)-3-cyclopropylacrylonitrile] |
